For assay [1], the target named is T1, human JAK1 (a.a. 837-1142) (Homo sapiens, UniProt P23458).
T1 construct: human JAK1 (a.a. 837-1142); His tag (N); made in house; host or cells: insect cells (baculovirus)
Put plainly: In vitro JAK kinase assay (HTRF), JAK1. It counts as biochemical. The note with it: 1 mM ATP. The protocol:
Compounds herein were tested for inhibitory activity of JAK targets according to the following in vitro assay described in Park et al., Analytical Biochemistry 1999, 269, 94-104. The catalytic domains of human JAK1 (a.a. 837-1142), JAK2 (a.a. 828-1132) and JAK3 (a.a. 781-1124) with an N-terminal His tag were expressed using baculovirus in insect cells and purified. The catalytic activity of JAK1, JAK2 or JAK3 was assayed by measuring the phosphorylation of a biotinylated peptide. The phosphorylated peptide was detected by homogenous time resolved fluorescence (HTRF). […] Reactions were carried out at room temperature for 1 hour and then stopped with 20 μL 45 mM EDTA, 300 nM SA-APC, 6 nM Eu-Py20 in assay buffer (Perkin Elmer, Boston, Mass.). Binding to the Europium labeled antibody took place for 40 minutes and HTRF signal was measured on a Fusion plate reader (Perkin Elmer, Boston, Mass.).

Assay [2] addresses T2, human JAK2 (a.a. 828-1132) (Homo sapiens, UniProt O60674).
T2 construct: JAK2 (a.a. 828-1132); His tag (N); made in house; host or cells: insect cells (baculovirus)
Put plainly: In vitro JAK kinase assay (HTRF), JAK2. As to conditions: IC50 ratio, selectivity for JAK1 over JAK2, 1 mM ATP. It counts as biochemical. The procedure:
Compounds herein were tested for inhibitory activity of JAK targets according to the following in vitro assay described in Park et al., Analytical Biochemistry 1999, 269, 94-104. The catalytic domains of human JAK1 (a.a. 837-1142), JAK2 (a.a. 828-1132) and JAK3 (a.a. 781-1124) with an N-terminal His tag were expressed using baculovirus in insect cells and purified. The catalytic activity of JAK1, JAK2 or JAK3 was assayed by measuring the phosphorylation of a biotinylated peptide. The phosphorylated peptide was detected by homogenous time resolved fluorescence (HTRF). […] Reactions were carried out at room temperature for 1 hour and then stopped with 20 μL 45 mM EDTA, 300 nM SA-APC, 6 nM Eu-Py20 in assay buffer (Perkin Elmer, Boston, Mass.). Binding to the Europium labeled antibody took place for 40 minutes and HTRF signal was measured on a Fusion plate reader (Perkin Elmer, Boston, Mass.). See Table 2 for data for compounds of the examples as tested by the assay of Example A at 1 mM ATP.
In general terms: In TR-FRET formats the signal depends on donor and acceptor labels being close together.

The structures appear in SMILES notation.

Experimental findings from patent publication US20220378791A1, “JAK1 INHIBITORS FOR THE TREATMENT OF MYELODYSPLASTIC SYNDROMES” (Incyte Corporation, priority 2014, published 2022) are described below.

T2 sequence (O60674 828-1132): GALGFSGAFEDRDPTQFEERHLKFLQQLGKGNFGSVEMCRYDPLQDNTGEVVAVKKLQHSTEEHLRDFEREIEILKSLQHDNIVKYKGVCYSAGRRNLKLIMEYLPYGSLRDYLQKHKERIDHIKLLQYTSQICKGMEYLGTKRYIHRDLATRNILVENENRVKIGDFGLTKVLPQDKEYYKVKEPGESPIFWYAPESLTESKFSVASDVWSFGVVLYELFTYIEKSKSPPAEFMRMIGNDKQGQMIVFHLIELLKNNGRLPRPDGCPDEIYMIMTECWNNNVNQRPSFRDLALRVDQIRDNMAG
T1 sequence (P23458 849-1154): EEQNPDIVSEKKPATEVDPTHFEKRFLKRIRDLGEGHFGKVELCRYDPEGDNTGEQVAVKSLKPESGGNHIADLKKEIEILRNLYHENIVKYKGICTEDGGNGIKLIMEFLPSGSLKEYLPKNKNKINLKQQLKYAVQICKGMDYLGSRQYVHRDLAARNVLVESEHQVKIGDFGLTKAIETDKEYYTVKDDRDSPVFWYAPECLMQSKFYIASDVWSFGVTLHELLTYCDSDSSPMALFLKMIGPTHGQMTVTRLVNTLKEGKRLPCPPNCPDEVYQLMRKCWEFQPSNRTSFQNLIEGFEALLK

What is called IC50 is the point on the concentration scale where inhibition reaches its midpoint. The low end stands for greater potency, the high end for weaker potency. For `N#CCC(C1CCN(c2cccc(Cl)n2)C1)n1cc(-c2ncnc3[nH]ccc23)cn1` (single isomer, unassigned) [Example 1, 3-[1-(6-chloropyridin-2-yl)pyrrolidin-3-yl]-3-[4-(7H-pyrrolo[2,3-d]pyrimidin-4-yl)-1H-pyrazol-1-yl]propanenitrile], in assay [1], the IC50 is < 10 nM. For the same compound, in assay [2], the JAK2/JAK1 was >10.

As to `N#CCC(C1CCN(c2nc3cccnc3o2)C1)n1cc(-c2ncnc3[nH]ccc23)cn1` (single isomer, unassigned) [Example 2, 3-(1-[1,3]oxazolo[5,4-b]pyridin-2-ylpyrrolidin-3-yl)-3-[4-(7H-pyrrolo[2,3-d]pyrimidin-4-yl)-1H-pyrazol-1-yl]propanenitrile], in assay [1], the IC50 was < 10 nM. For the same compound, the JAK2/JAK1 in assay [2] was >10.

`N#CCC(CN1CCN(C(=O)c2ccc(C#N)cc2F)CC1)n1cc(-c2ncnc3[nH]ccc23)cn1` (single isomer, unassigned) [Example 3, 4-[(4-{3-cyano-2-[4-(7H-pyrrolo[2,3-d]pyrimidin-4-yl)-1H-pyrazol-1-yl]propyl}piperazin-1-yl)carbonyl]-3-fluorobenzonitrile]: in assay [1], the IC50 is < 10 nM. Further, the JAK2/JAK1 in assay [2] is listed as >10.

In the case of `N#CCC(CN1CCN(C(=O)c2ccc(C#N)cc2F)CC1)n1ccc(-c2ncnc3[nH]ccc23)c1` (single isomer, unassigned) [Example 4, 4-[(4-{3-cyano-2-[3-(7H-pyrrolo[2,3-d]pyrimidin-4-yl)-1H-pyrrol-1-yl]propyl}piperazin-1-yl)carbonyl]-3-fluorobenzonitrile], the IC50 in assay [1] was < 10 nM. In addition, the JAK2/JAK1 in assay [2] was >10.

On to `N#CCC1(n2cc(-c3ncnc4[nH]ccc34)cn2)CN(C2CCN(C(=O)c3ccnc(C(F)(F)F)c3F)CC2)C1` [Example 5, {1-{1-[3-Fluoro-2-(trifluoromethyl)isonicotinoyl]piperidin-4-yl}-3-[4-(7H-pyrrolo[2,3-d]pyrimidin-4-yl)-1H-pyrazol-1-yl]azetidin-3-yl}acetonitrile], for which the half-inhibitory concentration (IC50) in assay [1] is < 10 nM. Further, the JAK2/JAK1 in assay [2] is given as >10.

As for `N#CCC1(n2cc(-c3ncnc4[nH]ccc34)cn2)CN(C2CCN(C(=O)Nc3ccc(F)cc3C(F)(F)F)CC2)C1` [Example 6, 4-{3-(Cyanomethyl)-3-[4-(7H-pyrrolo[2,3-d]pyrimidin-4-yl)-1H-pyrazol-1-yl]azetidin-1-yl}-N-[4-fluoro-2-(trifluoromethyl)phenyl]piperidine-1-carboxamide], the IC50 in assay [1] was < 10 nM. In addition, in assay [2], the JAK2/JAK1 is given as >10.

With `N#CCC1(n2cc(-c3ncnc4[nH]ccc34)cn2)CN(C2CCN(C(=O)c3ccnc(C(F)(F)F)n3)CC2)C1` [Example 7, [3-[4-(7H-pyrrolo[2,3-d]pyrimidin-4-yl)-1H-pyrazol-1-yl]-1-(1-{[2-(trifluoromethyl)pyrimidin-4-yl]carbonyl}piperidin-4-yl)azetidin-3-yl]acetonitrile], in assay [1], the IC50 was < 10 nM. The JAK2/JAK1 in assay [2] is >10.

Turning to `N#CC[C@]1(n2cc(-c3ncnc4[nH]ccc34)cn2)C[C@H](N2CCN(C(=O)c3ccnc(C(F)(F)F)n3)CC2)C1` [Example 8, [trans-1-[4-(7H-pyrrolo[2,3-d]pyrimidin-4-yl)-1H-pyrazol-1-yl]-3-(4-{[2-(trifluoromethyl)pyrimidin-4-yl]carbonyl}piperazin-1-yl)cyclobutyl]acetonitrile], in assay [1], the IC50 was < 10 nM. The JAK2/JAK1 in assay [2] is >10.

On to `N#CC[C@]1(n2cc(-c3ncnc4[nH]ccc34)cn2)C[C@H](N2CCC(Oc3cc(CN4CC(O)C4)cc(C(F)(F)F)n3)CC2)C1` [Example 9, {trans-3-(4-{[4-[(3-hydroxyazetidin-1-yl)methyl]-6-(trifluoromethyl)pyridin-2-yl]oxy}piperidin-1-yl)-1-[4-(7H-pyrrolo[2,3-d]pyrimidin-4-yl)-1H-pyrazol-1-yl]cyclobutyl}acetonitrile], for which the IC50 in assay [1] was < 10 nM. Further, the JAK2/JAK1 in assay [2] is listed as >10.

On to `N#CC[C@]1(n2cc(-c3ncnc4[nH]ccc34)cn2)C[C@H](N2CCC(Oc3cc(CN4CCC[C@H]4CO)cc(C(F)(F)F)n3)CC2)C1` [Example 10, {trans-3-(4-{[4-{[(2S)-2-(hydroxymethyl)pyrrolidin-1-yl]methyl}-6-(trifluoromethyl)pyridin-2-yl]oxy}piperidin-1-yl)-1-[4-(7H-pyrrolo[2,3-d]pyrimidin-4-yl)-1H-pyrazol-1-yl]cyclobutyl}acetonitrile], for which the IC50 in assay [1] is < 10 nM. In addition, in assay [2], the JAK2/JAK1 was >10.

Regarding `N#CC[C@]1(n2cc(-c3ncnc4[nH]ccc34)cn2)C[C@H](N2CCC(Oc3cc(CN4CCC[C@@H]4CO)cc(C(F)(F)F)n3)CC2)C1` [Example 11, {trans-3-(4-{[4-{[(2R)-2-(hydroxymethyl)pyrrolidin-1-yl]methyl}-6-(trifluoromethyl)pyridin-2-yl]oxy}piperidin-1-yl)-1-[4-(7H-pyrrolo[2,3-d]pyrimidin-4-yl)-1H-pyrazol-1-yl]cyclobutyl}acetonitrile], in assay [1], the IC50 was < 10 nM. Also, the JAK2/JAK1 in assay [2] is recorded as >10.

For `C[C@H](NC(=O)c1cc(F)c(N2CC(CC#N)(n3cc(-c4ncnc5[nH]ccc45)cn3)C2)cc1F)C(F)(F)F` [Example 14, 4-{3-(Cyanomethyl)-3-[4-(7H-pyrrolo[2,3-d]pyrimidin-4-yl)-1H-pyrazol-1-yl]azetidin-1-yl}-2,5-difluoro-N-[(1S)-2,2,2-trifluoro-1-methylethyl]benzamide], in assay [1], the half-inhibitory concentration (IC50) was < 10 nM. The JAK2/JAK1 in assay [2] is on record as >10.

Regarding `N#CCC1(n2cc(-c3ncnc4[nH]ccc34)cn2)CN([C@H]2CC[C@@H](Oc3cc(CCO)nc(C(F)(F)F)n3)CC2)C1` [Example 16, {1-(cis-4-{[6-(2-hydroxyethyl)-2-(trifluoromethyl)pyrimidin-4-yl]oxy}cyclohexyl)-3-[4-(7H-pyrrolo[2,3-d]pyrimidin-4-yl)-1H-pyrazol-1-yl]azetidin-3-yl}acetonitrile], in assay [1], the IC50 was < 10 nM. Besides, the JAK2/JAK1 in assay [2] was >10.

Take `CCNCc1cc(O[C@H]2CC[C@@H](N3CC(CC#N)(n4cc(-c5ncnc6[nH]ccc56)cn4)C3)CC2)nc(C(F)(F)F)c1` [Example 17, {1-(cis-4-{[4-[(ethylamino)methyl]-6-(trifluoromethyl)pyridin-2-yl]oxy}cyclohexyl)-3-[4-(7H-pyrrolo[2,3-d]pyrimidin-4-yl)-1H-pyrazol-1-yl]azetidin-3-yl}acetonitrile]: the IC50 in assay [1] was < 10 nM. In addition, the JAK2/JAK1 in assay [2] is >10.

In the case of `CC(C)(O)c1cc(O[C@H]2CC[C@@H](N3CC(CC#N)(n4cc(-c5ncnc6[nH]ccc56)cn4)C3)CC2)nc(C(F)(F)F)c1` [Example 18, {1-(cis-4-{[4-(1-hydroxy-1-methylethyl)-6-(trifluoromethyl)pyridin-2-yl]oxy}cyclohexyl)-3-[4-(7H-pyrrolo[2,3-d]pyrimidin-4-yl)-1H-pyrazol-1-yl]azetidin-3-yl}acetonitrile], in assay [1], the IC50 was < 10 nM. For the same compound, in assay [2], the JAK2/JAK1 is >10.

For `N#CCC1(n2cc(-c3ncnc4[nH]ccc34)cn2)CN([C@H]2CC[C@@H](Oc3cc(CN4CC[C@@H](O)C4)cc(C(F)(F)F)n3)CC2)C1` [Example 19, {1-(cis-4-{[4-{[(3R)-3-hydroxypyrrolidin-1-yl]methyl}-6-(trifluoromethyl)pyridin-2-yl]oxy}cyclohexyl)-3-[4-(7H-pyrrolo[2,3-d]pyrimidin-4-yl)-1H-pyrazol-1-yl]azetidin-3-yl}acetonitrile], the IC50 in assay [1] was < 10 nM. For the same compound, the JAK2/JAK1 in assay [2] is recorded as >10.

In the case of `N#CCC1(n2cc(-c3ncnc4[nH]ccc34)cn2)CN([C@H]2CC[C@@H](Oc3cc(CN4CC[C@H](O)C4)cc(C(F)(F)F)n3)CC2)C1` [Example 20, {1-(cis-4-{[4-{[(3S)-3-hydroxypyrrolidin-1-yl]methyl}-6-(trifluoromethyl)pyridin-2-yl]oxy}cyclohexyl)-3-[4-(7H-pyrrolo[2,3-d]pyrimidin-4-yl)-1H-pyrazol-1-yl]azetidin-3-yl}acetonitrile], the IC50 in assay [1] was < 10 nM. The JAK2/JAK1 in assay [2] is given as >10.

In the case of `C[C@@H](CO)NCc1cc(OC2CCN([C@H]3C[C@](CC#N)(n4cc(-c5ncnc6[nH]ccc56)cn4)C3)CC2)nc(C(F)(F)F)c1` [Example 21, {trans-3-(4-{[4-({[(1S)-2-hydroxy-1-methylethyl]amino}methyl)-6-(trifluoromethyl)pyridin-2-yl]oxy}piperidin-1-yl)-1-[4-(7H-pyrrolo[2,3-d]pyrimidin-4-yl)-1H-pyrazol-1-yl]cyclobutyl}acetonitrile], the IC50 in assay [1] is < 10 nM. Besides, the JAK2/JAK1 in assay [2] is reported as >10.
